For experiment [1] the following is noted: Monikawa et al., Experientia 32(9), 1104-1106 (1976); cited from earlier work.
Experiment [2] concerns serum calcium concentration. Put plainly: Biological assay of calcitonin analogs in vivo: reduction of serum calcium concentration, 2×2 parallel line assay. As to conditions: rats, subcutaneous injection, blood withdrawn 1 hour later, versus synthetic salmon calcitonin standard. On the procedure: Biological Assay of Calcitonin Analogs in Vivo
The biological potency of des-19-leucine, 20-glutamine, 21-threonine-salmoncalcitonin was determined by comparing the reduction of serum calcium concentration which followed administration by graded doses of des-Leu^19, Gln^20, Thr^21 -SCT and synthetic salmon calcitonin standard. Rats were divided into four groups of seven animals, and each group was assigned at random to a dose of standard or test solution. Low and high doses were chosen from the linear portion of the dose-response curve. For the salmon calcitonin standard, the values were 0.7 and 2.1 ng. peptide/100 g. body weight (BW). This dose approximates 3 and 9 MU/100 g. BW. Peptides were given by subcutaneous injection (0.2 ml/100 g. BW) and blood was withdrawn 1 hour later for serum calcium determination. Sera are processed and analyzed within two hours of collection. […]. Results were analyzed by a 2×2 parallel line assay [Gaddum, J. H., J. Pharm. Pharmacol., 6, 345 (1953)]. The standard salmon calcitonin used was independently determined to contain greater than 4,000 IU/mg. des-Leu^19, Gln^20, Thr^21 -SCT assayed at 7100 IU/mg.

Experiment [3] concerns serum calcium concentration. The following applies: standard used in the rat assay; cited from earlier work.

Where a SMILES comes first, the peptide text is derived from it.

Turning to “(1,7-alpha-L-amino-suberic acid) eel calcitonin”, in experiment [1], the hypocalcemic potency entry is given as “about 3400 IU/mg”.
Regarding `CC(C)C[C@H](NC(=O)[C@H](CCCCN)NC(=O)CNC(=O)[C@H](CC(C)C)NC(=O)[C@@H](NC(=O)[C@@H]1CSSC[C@H](N)C(=O)N[C@@H](CO)C(=O)N[C@@H](CC(N)=O)C(=O)N[C@@H](CC(C)C)C(=O)N[C@@H](CO)C(=O)N[C@@H]([C@@H](C)O)C(=O)N1)C(C)C)C(=O)N[C@@H](CO)C(=O)N[C@@H](CCC(N)=O)C(=O)N[C@@H](CCC(=O)O)C(=O)N[C@@H](CC(C)C)C(=O)N[C@@H](Cc1c[nH]cn1)C(=O)N[C@@H](CCCCN)C(=O)N[C@@H](Cc1ccc(O)cc1)C(=O)N1CCC[C@H]1C(=O)N[C@@H](CCCNC(=N)N)C(=O)N[C@H](C(=O)N[C@@H](CC(N)=O)C(=O)N[C@H](C(=O)NCC(=O)N[C@@H](CO)C(=O)NCC(=O)N[C@H](C(=O)N1CCC[C@H]1C(N)=O)[C@@H](C)O)[C@@H](C)O)[C@@H](C)O` [des-Leu^19, Gln^20, Thr^21 -SCT, des-19-leucine, 20-glutamine, 21-threonine-salmon calcitonin] (HELM PEPTIDE1{C.S.N.L.S.T.C.V.L.G.K.L.S.Q.E.L.H.K.Y.P.R.T.N.T.G.S.G.T.P.[am]}$PEPTIDE1,PEPTIDE1,1:R3-7:R3$$$V2.0), in experiment [2], the “biological potency (reduction of serum calcium concentration)” value was found to be 7100 IU/mg.
For “Salmon calcitonin [standard salmon calcitonin]”, in experiment [3], the “potency of the standard salmon calcitonin, independently determined” value was “greater than 4,000 IU/mg”.
For the molecule “eel calcitonin [synthetic eel calcitonin]”, in experiment [1], the hypocalcemic potency entry is given as “around 4300 IU/mg”.

(Values after patent US4764590A, “Des-19-leucine, 20-glutamine, 21-threonine-calcitonin” (Rorer Pharmaceutical Corporation, priority 1987, dated 1988).)
